# From patent US20120046258A1, “NOVEL CRYSTALLINE PHARMACEUTICAL PRODUCT” (GLAXO GROUP LIMITED, priority 2005, published 2012)
# Test: Anderson Cascade impaction analysis of dry powder blend in blister strip
# Type: physicochemical
# Conditions: 0.8% w/w drug in milled lactose blend, 13 mg per blister
# Protocol: A blend was prepared containing 0.8% w/w 6α,9α-difluoro-17α-[(2-furanylcarbonyl)oxy]-11β-hydroxy-16α-methyl-3-oxo-androsta-1,4-diene-17β-carbothioic acid S-fluoromethyl ester, prepared as particles according to the invention, and 99.2% w/w milled lactose (wherein the mean particle size is of the range 60-90 μm, and not greater than 15% of particles have a MMD of less than 15 μm).
# The above composition was blended for 10 minutes at 600 rpm in a 2.5 litre bowl QMM Micromixer. A peelable blister strip containing 14 blisters, each filled with 13 mg of the powder formulation described above was prepared.
# Anderson Cascade impaction analysis of this product was performed initially and after 1 month storage at 30° C. and 65% relative humidity as shown in Table 1 below.
smiles,measurement,setting,value
"C[C@]12C[C@H](O)[C@@]3(F)C(C[C@H](F)C4=CC(=O)C=C[C@@]43C)C1C[C@](C)(OC(=O)c1ccco1)[C@@H]2C(=O)SCF (some centres unmarked) [Micronised Drug, reference compound]",Respirable fraction (% of Total Emitted Dose),1 month @ 30° C./65% Relative Humidity,25.1 % of Total Emitted Dose
same,Respirable fraction (% of Total Emitted Dose),Initial,26.6 % of Total Emitted Dose
